# Patent publication US8354522B2, “Immunostimulatory oligoribonucleotides” (Coley Pharmaceutical GmbH, priority 2005, dated 2013)
# Entries after “also recorded” stand apart in the source; their conditions may differ.
# How the values were obtained:
# [1] = tested on: isolated pDC; assay: IFN-alpha production upon isolated pDC stimulation; format: cell-based, human; details: 0.5 μM ORN complexed to 10 μg/ml DOTAP, 16 h
# Protocol: FIG. 2 is a set of bar graphs depicting ORN induced cytokine production upon isolated pDC (FIG. 2a), monocytes (FIG. 2b) and mDC (FIG. 2c) stimulation. Cells were stimulated with 0.5 μM ORN complexed to 10 μg/ml DOTAP, 0.5 μM CpG ODN or DOTAP or media alone and IFN-alpha (FIG. 2a), TNF-alpha […] and IL-12p40 (FIG. 2c) were measured.
# A similar assay testing different ORN sequences was performed using isolated pDC, monocytes and mDC stimulation. Cells were stimulated with 0.5 μM ORN complexed to 10 μg/ml DOTAP, 0.5 μM CpG ODN or DOTAP or media alone. After 16 h the supernatants were harvested and IFN-alpha, TNF-alpha and IL-12p40 levels were measured by ELISA.
# [2] = tested on: sv129 mice; assay: Cytokine production in sv129 mice in vivo (whole blood ELISA, 3 hours); parameters: species or system mouse; details: ORN formulated with DOTAP, bled after 3 hours
# Protocol: Cells used were mouse macrophage cell line Raw264.7 cells (FIG. 12a), J774 cells (FIG. 12b), purified mouse CD11c+ cells (sv129 mice) (FIGS. 12c-12h) and mouse cells in vivo. Cytokine concentration was evaluated by ELISA.
# Raw264.7 cells (FIG. 12a), J774 cells (FIG. 12b) and purified CD11c+ cells (Milteny, magnetic bead labeling) were isolated from sv129 mice splenocytes (FIGS. 12c-12e) and were stimulated with indicated concentrations of ORN complexed to DOTAP (50 μg/ml and diluted with ORN), R-848 or DOTAP alone (50 μg/ml). After 16 hours (FIGS. 12a and 12b) or 20 hours (FIGS. 12c-12e) supernatants were harvested and used for TNF-alpha (FIGS. 12a and 12b), IL-12p40 (FIG. 12c), IFN-alpha (FIG. 12d) and IP-10 (FIG. 12e) ELISA. Data represent one individual from at least three experiments (FIGS. 12a and 12b) and mean of 3 mice (FIGS. 12c-12e). To measure the ability of AU-rich ORN to stimulate mouse cells in vivo, sv129 mice (n=5/group) were injected with the indicated amounts of ORN formulated with DOTAP (60, 20 or 6 μg/ml), and bled after 3 hours. IL-12p40 (FIG. 12f), IFN-alpha (FIG. 12g) and IP-10 (FIG. 12h) production was measured within whole blood by ELISA.
substance,measurement,setting,value
U*U*A*U*U*A*U*U*A*U*U*A*U*U*A*U*U*A*U*U (UUAUUAUUAUUAUUAUUAUU; chemistry not fully specified) [SEQ ID NO: 13],IFN-alpha production upon pDC stimulation (in words),[1],strongly reduced IFN-alpha production; also recorded: no IFN-alpha cytokine production
same,"response of mouse cells in vivo (IL-12p40, IFN-alpha, IP-10 in whole blood)",[2],do not Respond
